# Target: T1, HIV-integrase (Human immunodeficiency virus type 1 group M subtype B, UniProt P12497)
# T1 construct: Recombinant integrase (0.26 ng) was incubated with the beads
# Assay: HIV-Integrase Inhibition Activity (SPA bead integration assay with P33 labeled target DNA)
# Assay type: biochemical
# Details: in vitro activity, recombinant integrase, class symbols
# Method in brief: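 Strand integration read as bead-proximity CPM after P33 target DNA (0.1 fmol) and inhibitor were added to washed integrase–substrate DNA complexes on SPA beads. Enzyme bound 90 min at 37° C; EDTA (10 mM final) terminated reaction; IC50 graded A/B/C.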
row,SMILES,IC50
1,"CC1(C)[C@@H]2CC[C@@]1(C)[C@@H](NS(C)(=O)=O)c1nc(C(=O)NCc3ccc(F)cc3)c(O)c(=O)n1C2 [Example 185, (7S,10R,11R)—N-(4-Fluorobenzyl)-3-hydroxy-10,12,12-trimethyl-11-((methylsulfonyl)amino)-4-oxo-6,7,8,9,10,11-hexahydro-4H-7,10-methanopyrimido[1,2-a]azocine-2-carboxamide]",> 100 nM

# Same assay, conditions: recombinant integrase, class symbols; read-out: in vitro activity
row,SMILES,IC50
1,"CS(=O)(=O)N1CC[C@H]1C(=O)NC12CCC(CC1)Cn1c2nc(C(=O)NCc2ccc(F)cc2)c(O)c1=O [Example 268, 7,10-Ethanopyrimido[1,2-a]azepine-2-carboxamide, N-[(4-fluorophenyl)methyl]-4,6,7,8,9,10-hexahydro-3-hydroxy-10-[[[(2S)-1-(methylsulfonyl)-2-azetidinyl]carbonyl]amino]-4-oxo-]",< 10 nM
2,"Cn1nnnc1C(=O)NC12CCC(CC1)Cn1c2nc(C(=O)NCc2ccc(F)cc2)c(O)c1=O [Example 249, 7,10-Ethanopyrimido[1,2-a]azepine-2-carboxamide, N-[(4-fluorophenyl)methyl]-4,6,7,8,9,10-hexahydro-3-hydroxy-10-[[(1-methyl-1H-tetrazol-5-yl)carbonyl]amino]-4-oxo-]",< 10 nM
3,"CN(C)C(=O)CNC12CCC(CC1)Cn1c2nc(C(=O)NCc2ccc(F)cc2)c(O)c1=O [Example 30, 10-((2-(Dimethylamino)-2-oxoethyl)amino)-N-(4-fluorobenzyl)-3-hydroxy-4-oxo-4,6,7,8,9,0-hexahydro-7,10-ethanopyrimido[1,2-a]azepine-2-carboxamide]",10 to 100 nM
4,"O=C(CN1CCCC1=O)NC12CCC(CC1)Cn1c2nc(C(=O)NCc2ccc(F)cc2)c(O)c1=O [Example 43, N-(4-Fluorobenzyl)-3-hydroxy-4-oxo-10-(((2-oxo-1-pyrrolidinyl)acetyl)amino)-4,6,7,8,9,10-hexahydro-7,10-ethanopyrimido[1,2-a]azepine-2-carboxamide]",< 10 nM
5,"CN(C)C(=O)C(=O)NC12CCC(CCn3c1nc(C(=O)NCc1ccc(F)c(Cl)c1)c(O)c3=O)C2 (centres unmarked) [Example 213, Ethanediamide, N′-[2-[[[(3-chloro-4-fluorophenyl)methyl]amino]carbonyl]-7,8,9,10-tetrahydro-3-hydroxy-4-oxo-8,11-methano-4H-pyrimido[1,2-a]azocin-11(6H)-yl]-N,N-dimethyl-]",< 10 nM
6,"O=C(NC(=S)NC12CCC(CC1)Cn1c2nc(C(=O)NCc2ccc(F)cc2)c(O)c1=O)c1ccccc1 [Example 332, 7,10-Ethanopyrimido[1,2-a]azepine-2-carboxamide, 10-[[(benzoylamino)thioxomethyl]amino]-N-[(4-fluorophenyl)methyl]-4,6,7,8,9,10-hexahydro-3-hydroxy-4-oxo-]",10 to 100 nM
7,"CN1CCC[C@@H]1C(=O)NC12CCC(CC1)Cn1c2nc(C(=O)NCc2ccc(F)cc2)c(O)c1=O [Example 257, 7,10-Ethanopyrimido[1,2-a]azepine-2-carboxamide, N-[(4-fluorophenyl)methyl]-4,6,7,8,9,10-hexahydro-3-hydroxy-10-[[[(2R)-1-methyl-2-pyrrolidinyl]carbonyl]amino]-4-oxo-]",10 to 100 nM
8,CN(C)C(=O)C(=O)NC12CCC(CC1)Cn1c2nc(C(=O)NCc2ccccc2F)c(O)c1=O [Example 367],< 10 nM
9,"CN(C12CCC(CC1)Cn1c2nc(C(=O)NCc2ccc(F)cc2)c(O)c1=O)S(C)(=O)=O [Example 155, N-(4-Fluorobenzyl)-3-hydroxy-10-(methyl(methylsulfonyl)amino)-4-oxo-4,6,7,8,9,10-hexahydro-7,10-ethanopyrimido[1,2-a]azepine-2-carboxamide]",< 10 nM
10,"CN(CCF)C(=O)C(=O)NC12CCC(CCn3c1nc(C(=O)NCc1ccc(F)cc1)c(O)c3=O)C2 (centres unmarked) [Example 209, Ethanediamide, N-(2-fluoroethyl)-N′-[2-[[[(4-fluorophenyl)methyl]amino]carbonyl-7,8,9,10-tetrahydro-3-hydroxy-4-oxo-8,11-methano-4H-pyrimido[1,2-a]azocin-1](6H)-yl]-N-methyl]",< 10 nM
11,"O=C(NC12CCC(CC1)Cn1c2nc(C(=O)NCc2ccc(F)cc2)c(O)c1=O)c1ccc2nccn2c1 [Example 239, 7,10-Ethanopyrimido[1,2-a]azepine-2-carboxamide, N-[(4-fluorophenyl)methyl]-4,6,7,8,9,10-hexahydro-3-hydroxy-10-[(imidazo[1,2-a]pyridin-6-ylcarbonyl)amino]-4-oxo-]",< 10 nM
12,"CN(C)C(=O)C(=O)NC12CCC(CC1)Cn1c2nc(C(=O)NCc2ccc(F)c(C3CC3)c2)c(O)c1=O [Example 128, N′-(2-((3-Cyclopropyl-4-fluorobenzyl)carbamoyl)-3-hydroxy-4-oxo-6,7,8,9-tetrahydro-7,10-ethanopyrimido[1,2-a]azepin-10(4H)-yl)-N,N-dimethylethanediamide]",< 10 nM
13,"COCCN1CCN(C(=O)C(=O)NC23CCC(CC2)Cn2c3nc(C(=O)NCc3ccc(F)cc3)c(O)c2=O)CC1 [Example 73, N-(4-Fluorobenzyl)-3-hydroxy-10-(((4-(2-methoxyethyl)-1-piperazinyl)(oxo)acetyl)amino)-4-oxo-4,6,7,8,9,10-hexahydro-7,10-ethanopyrimido[1,2-a]azepine-2-carboxamide]",< 10 nM
14,"CN(C)C(=O)C(=O)NC12CCC(CC1)Cn1c2nc(C(=O)NCc2ccc(F)c(C#N)c2)c(O)c1=O [Example 132, N′-(2-((3-Cyano-4-fluorobenzyl)carbamoyl)-3-hydroxy-4-oxo-6,7,8,9-tetrahydro-7,10-ethanopyrimido[1,2-a]azepin-10(4H)-yl)-N,N-dimethylethanediamide]",< 10 nM
15,"CO[C@H]1C[C@@H](C(=O)NC23CCC(CC2)Cn2c3nc(C(=O)NCc3ccc(F)c(C)c3)c(O)c2=O)N(C(=O)c2ncn(C)n2)C1 [Example 299, 7,10-Ethanopyrimido[1,2-a]azepine-2-carboxamide, N-[(4-fluoro-3-methylphenyl)methyl]-4,6,7,8,9,10-hexahydro-3-hydroxy-10-[[[(2S,4S)-4-methoxy-1-[(1-methyl-1H-1,2,4-triazol-3-yl)carbonyl]-2-pyrrolidinyl]carbonyl]amino]-4-oxo-]",< 10 nM
16,COc1ccc(CCNC(=O)c2nc3n(c(=O)c2O)CC2CCC3(NC(=O)C(=O)N(C)C)CC2)cc1 [Example 346],> 100 nM
17,"Cc1c(CN(C)C(=O)C(=O)NC23CCC(CC2)Cn2c3nc(C(=O)NCc3ccc(F)cc3)c(O)c2=O)cnn1C [Example 95, N-((1,5-Dimethyl-1H-pyrazol-4-yl)methyl)-N′-(2-((4-fluorobenzyl)carbamoyl)-3-hydroxy-4-oxo-6,7,8,9-tetrahydro-7,10-ethanopyrimido[1,2-a]azepin-10(4H)-yl)-N-methylethanediamide]",< 10 nM
18,"CN(C)C(=O)C(=O)NC12CCC(CC1)Cn1c2nc(C(=O)NCc2ccc3nccn3c2)c(O)c1=O [Example 244, Ethanediamide, N,N-dimethyl-N′-[6,7,8,9-tetrahydro-3-hydroxy-2-[[(imidazo[1,2-a]pyridin-6-ylmethyl)amino]carbonyl]-4-oxo-7,10-ethanopyrimido[1,2-a]azepin-10(4H)-yl]-]",10 to 100 nM
19,CCS(=O)(=O)N1CCCC1C(=O)NC12CCC(CC1)Cn1c2nc(C(=O)NCc2ccc(F)cc2)c(O)c1=O (centres unmarked) [Example 403],< 10 nM
20,"CC1(C)[C@@H]2CC[C@@]1(C)[C@@H](N)c1nc(C(=O)NCc3ccc(F)cc3)c(O)c(=O)n1C2 [Example 182, (7S,10R,11R)-11-Amino-N-(4-fluorobenzyl)-3-hydroxy-10,12,12-trimethyl-4-oxo-6,7,8,9,10,11-hexahydro-4H-7,10-methanopyrimido[1,2-a]azocine-2-carboxamide]",> 100 nM
21,"Cc1cc(CNC(=O)c2nc3n(c(=O)c2O)CC2CCC3(NC(=O)[C@H]3CCN(C(=O)c4cc(C)n(C)n4)C3)CC2)ccc1F [Example 301, 7,10-Ethanopyrimido[1,2-a]azepine-2-carboxamide, 10-[[[(3S)-1-[(1,5-dimethyl-1H-pyrazol-3-yl)carbonyl]-3-pyrrolidinyl]carbonyl]amino]-N-[(4-fluoro-3-methylphenyl)methyl]-4,6,7,8,9,10-hexahydro-3-hydroxy-4-oxo-]",10 to 100 nM
22,"Cc1c(C(=O)NC23CCC(CC2)Cn2c3nc(C(=O)NCc3ccc(F)cc3)c(O)c2=O)ncn1C [Example 242, 7,10-Ethanopyrimido[1,2-a]azepine-2-carboxamide, 10-[[(1,5-dimethyl-1H-imidazol-4-yl)carbonyl]amino]-N-[(4-fluorophenyl)methyl]-4,6,7,8,9,10-hexahydro-3-hydroxy-4-oxo-]",< 10 nM
23,"COc1cc(F)ccc1CNC(=O)c1nc2n(c(=O)c1O)CC1CCC2(NC(=O)C(=O)N(C)C)CC1 [Example 116, N′-(2-((4-Fluoro-2-methoxybenzyl)carbamoyl)-3-hydroxy-4-oxo-6,7,8,9-tetrahydro-7,10-ethanopyrimido[1,2-a]azepin-10(4H)-yl)-N,N-dimethylethanediamide]",< 10 nM
24,"O=C(N[C@]12CC[C@H](CCn3c1nc(C(=O)NCc1ccc(F)cc1)c(O)c3=O)C2)C(=O)N1CC[C@@H](F)C1 [Example 417, 8,1,1-Methano-4H-pyrimido[1,2-a]azocine-2-carboxamide, N-[(4-fluorophenyl)methyl]-11-[[2-[(3R)-3-fluoro-1-pyrrolidinyl]-1,2-dioxoethyl]amino]-6,7,8,9,10,11-hexahydro-3-hydroxy-4-oxo-, (8R,11S)—]",< 10 nM
25,"CS(=O)(=O)NC12CCC(Cn3c1nc(C(=O)NCc1ccc(F)cc1)c(O)c3=O)C2 (centres unmarked) [Example 192, 7,10-Methanopyrimido[1,2-a]azepine-2-carboxamide, N-[(4-fluorophenyl)methyl]-4,6,7,8,9,10-hexahydro-3-hydroxy-10-[(methylsulfonyl)amino]-4-oxo-]",< 10 nM
